Test results published in patent publication US20220002291A1, “PROTEOLYSIS-TARGETING CHIMERAS” (The Wistar Institute of Anatomy and Biology, priority 2018, published 2022).

How the values were obtained:
BV173 cells = experiment: Proteomic analysis (LC-MS/MS, LFQ) of BV173 cells; format: cell-based, human; details: 1 μM, 4 hours
Experimental: Proteomic Analysis. 15×10^6 BV173 cells were treated for 4 hours with 1 μM of PROTAC YX-2-107 or DMSO in triplicate. Cells were centrifuged, washed in ice-cold PBS and lysed in 300 μL of lysis buffer (50 mM Tris, pH 7.5, 1% SDS, 150 mM NaCl, 1 mM EDTA) supplemented with protease inhibitor cocktail (VWR #M221). Lysates were sonicated with Bioruptor (Diagenode) and cleared by centrifugation (10,000 g, 30 min, 4° C.). Protein concentration was assessed by the BCA method (Pierce #23227). Twenty-five μg of proteins were loaded on 10% acrylamide gels (Bio Rad, #4561035), electrophoresed into the gel for 0.5 cm and stained with Coomassie brilliant blue R-250 (Bio Rad #1610400) 0.1% in 40% ethanol, 10% Acetic Acid glacial, 50% water. The entire protein-containing gel regions were excised, digested with trypsin and analyzed by liquid chromatography tandem mass spectrometry (LC-MS/MS) using a 240-min gradient as described (Chae et al., 2016).
Peptide sequences were identified using MaxQuant 1.6.3.3 (Cox and Mann, 2008). MS/MS spectra were searched against a UniProt human protein database (Oct. 1, 2018) using full tryptic specificity with up to two missed cleavages, static carboxamidomethylation of Cys, and variable oxidation of Met and protein N-terminal acetylation. Proteins were quantified by label-free quantitation (LFQ). […] A total of 3,682 protein groups were quantified using these criteria.

CDK4/CDK6 kinase inhibition (CDK4 and CDK6): potently inhibit CDK6 and CDK4
Structure (SMILES): CC(=O)c1c(C)c2cnc(Nc3ccc(N4CCN(C(=O)CNCCCCNC(=O)COc5cccc6c5C(=O)N(C5CCC(=O)NC5=O)C6=O)CC4)cn3)nc2n(C2CCCC2)c1=O (centres unmarked) [YX-2-107]
proteins significantly downregulated (LFQ intensity vs DMSO) (BV173 cells): of 3,682 proteins examined only CDK6 was significantly downregulated
